For orientation: IC50 means the concentration at which inhibition is half-maximal.

In patent publication US20250092056A1, “URACIL DERIVATIVES HAVING VIRUS REPLICATION INHIBITORY ACTIVITY AND PHARMACEUTICAL COMPOSITION COMPRISING THE SAME” (Shionogi & Co., Ltd., priority 2022, published 2025) one finds EC50 and IC50 data, which are given here for 40 molecules.

One test concerns SARS-CoV-2. Kind of test: Cytopathic effect (CPE) suppression effect confirmation test using HEK293T/ACE2-TMPRSS2 cells. In kind it is cell-based. The conditions noted are these: Severe acute respiratory syndrome coronavirus 2, HEK-293T. Background: Damage to the host cells serves as the signal in cytopathic effect assays.
Test [1] deals with Recombinant SARS-CoV-2 3CL Protease (Severe acute respiratory syndrome coronavirus 2 (2019-nCoV) (SARS-CoV-2), UniProt P0DTD1). Put plainly: biochemical. In kind it is biochemical. The conditions noted are these: 50% SARS-CoV-2 3CL protease inhibitory concentration; read-out: IC50.
The mark [2] stands for this setting: 72 h, read-out: EC50 (50% SARS-CoV-2 infected cell death inhibitory concentration), class, HEK293T/ACE2-TMPRSS2 cells, CPE suppression, CellTiter-Glo 2.0 after 3 days culture.
The mark [3] stands for this setting: 50% SARS-CoV-2 infected cell death inhibitory concentration, HEK293T/ACE2-TMPRSS2 cells, read-out: EC50.
Setting [4] is: 72 h, read-out: EC50 (50% SARS-CoV-2 infected cell death inhibitory concentration), HEK293T/ACE2-TMPRSS2 cells, CPE suppression, CellTiter-Glo 2.0 after 3 days culture.
[5] abbreviates: 72 h, HEK293T/ACE2-TMPRSS2 cells, CPE suppression, CellTiter-Glo 2.0 after 3 days culture, read-out: EC50 (50% SARS-CoV-2 infected cell death inhibitory concentration), class.

Where two headings read alike, the source gives them in different places.

As to `Cc1cncc(-n2c(=O)c(Cc3cc(F)c(F)c(F)c3)c(N3CCC4(CCC(O)C4)C3)n(CC#N)c2=O)c1` (racemic) [Compound I-110], the EC50 with SARS-CoV-2 (setting [2]) is below 100 nM. The IC50 in test [1] was below 10 nM.
In the same order, the values of `Cc1cncc(-n2c(=O)c(Cc3cc(F)c(F)c(F)c3)c(N3CCC(C(F)(F)F)C3)n(CC#N)c2=O)c1` (racemic) [Compound I-113] are below 100 nM and below 10 nM.
In the same order, the values of `Cc1cncc(-n2c(=O)c(Cc3cc(F)c(F)c(F)c3)c(N3CCC(C)(F)C3)n(CC#N)c2=O)c1` (racemic) [Compound I-115] are below 100 nM and below 10 nM.
In the same order, the values of `N#CCn1c(N2Cc3ccccc3C2)c(Cc2cc(F)c(F)c(F)c2)c(=O)n(C2CCNC(=O)C2)c1=O` (racemic) [Compound I-155] are 1000 to 5000 nM and above 100 nM.
Consider `N#CCn1c(N2C[C@@H]3CC[C@H]2C3)c(-c2ccc(F)c(Cl)c2)c(=O)n(-c2cncc(Cl)c2)c1=O` (racemic) [Compound I-267], for which the EC50 in the test on SARS-CoV-2 (setting [3]) was below 100 nM. Further, the IC50 in test [1] is below 10 nM.
In the same order, the values of `Cc1cncc(N2C(=O)N(CC#N)CC3(COc4ccc(Cl)cc43)C2=O)c1` (racemic) [Compound I-282] are below 100 nM and 2800 nM.
On to `N#CCn1c(N2CC[C@@](O)(C(F)F)C2)c(-c2ccc(F)c(Cl)c2)c(=O)n(-c2cncc(Cl)c2)c1=O` (single isomer, unassigned) [Compound I-238], for which the EC50 in the test on SARS-CoV-2 (setting [4]) came to 4.62 nM. Further, in test [1], the IC50 was 0.97 nM.
In the same order, the values of `N#CCn1c(N2CC[C@](O)(C(F)F)C2)c(-c2ccc(F)c(Cl)c2)c(=O)n(-c2cncc(Cl)c2)c1=O` (single isomer, unassigned) [Compound I-239] are 3.15 nM and 0.63 nM.
In the case of `N#CCn1c(N2CC[C@@](O)(c3ccccc3)C2)c(-c2ccc(F)c(Cl)c2)c(=O)n(-c2cncc(Cl)c2)c1=O` (single isomer, unassigned) [Compound I-240], the EC50 in the test on SARS-CoV-2 (setting [3]) is below 100 nM. The concentration for half-maximal inhibition (IC50) in test [1] was below 10 nM.
In the same order, the values of `N#CCn1c(N2CC[C@](O)(c3ccccc3)C2)c(-c2ccc(F)c(Cl)c2)c(=O)n(-c2cncc(Cl)c2)c1=O` (single isomer, unassigned) [Compound I-241] are below 100 nM and below 10 nM.
In the same order, the values of `C[C@@H](C#N)n1c(N2CC3(CCOC3)C2)c(-c2ccc(F)c(Cl)c2)c(=O)n(-c2cncc(Cl)c2)c1=O` (single isomer, unassigned) [Compound I-262] are below 100 nM and below 10 nM.
In the same order, the values of `C[C@H](C#N)n1c(N2CC(C(C)(C)O)C2)c(-c2ccc(F)c(Cl)c2)c(=O)n(-c2cncc(Cl)c2)c1=O` (single isomer, unassigned) [Compound I-288] are below 100 nM and below 10 nM.
For the molecule `C[C@@]1(O)CCN(c2c(-c3ccc(F)c(Cl)c3)c(=O)n(-c3cncc(Cl)c3)c(=O)n2CC#N)C1` (single isomer, unassigned) [Compound I-294], the EC50 with SARS-CoV-2 (setting [3]) was below 100 nM. Besides, the IC50 in test [1] was below 10 nM.
In the same order, the values of `N#CCn1c(N2CC[C@@](O)(C3CC3)C2)c(-c2ccc(F)c(Cl)c2)c(=O)n(-c2cncc(Cl)c2)c1=O` (single isomer, unassigned) [Compound I-356] are below 100 nM and below 10 nM.
In the same order, the values of `C[C@@H](C#N)n1c(N2CCC(F)(F)CC2)c(-c2ccc(F)c(Cl)c2)c(=O)n(-c2cncc(Cl)c2)c1=O` (single isomer, unassigned) [Compound I-386] are below 100 nM and below 10 nM.
In the same order, the values of `C[C@](O)(CCc1c(-c2ccc(F)c(Cl)c2)c(=O)n(-c2cncc(Cl)c2)c(=O)n1CC#N)C(F)F` (single isomer, unassigned) [Compound I-392] are below 100 nM and below 10 nM.
On to `C[C@@](O)(CCc1c(-c2ccc(F)c(Cl)c2)c(=O)n(-c2cncc(Cl)c2)c(=O)n1CC#N)C(F)F` (single isomer, unassigned) [Compound I-393], for which the EC50 in the test on SARS-CoV-2 (setting [3]) was below 100 nM. Further, in test [1], the half-inhibitory concentration (IC50) was below 10 nM.
In the same order, the values of `C[C@@H](C#N)n1c(N2CC[C@@](O)(C(F)F)C2)c(-c2ccc(F)c(F)c2)c(=O)n(-c2cncc(Cl)c2)c1=O` (single isomer, unassigned) [Compound I-419] are below 100 nM and below 10 nM.
In the same order, the values of `C[C@H](C#N)n1c(N2CC[C@@](O)(C(F)F)C2)c(-c2ccc(F)c(Cl)c2)c(=O)n(-c2cncc(Cl)c2)c1=O` (single isomer, unassigned) [Compound I-423] are below 100 nM and below 10 nM.
In the same order, the values of `C[C@@H](C#N)n1c(N2CC[C@@](O)(C(F)F)C2)c(-c2ccc(F)c(C#N)c2)c(=O)n(-c2cncc(Cl)c2)c1=O` (single isomer, unassigned) [Compound I-427] are below 100 nM and below 10 nM.
As for `C[C@@H](C#N)n1c(N2CC[C@@](O)(C(F)F)C2)c(-c2ccc(F)c(C(F)F)c2)c(=O)n(-c2cncc(Cl)c2)c1=O` (single isomer, unassigned) [Compound I-428], in the test on SARS-CoV-2 (setting [3]), the EC50 is below 100 nM. The IC50 in test [1] was below 10 nM.
In the same order, the values of `C[C@](O)(CCc1c(-c2ccc(F)c(Cl)c2)c(=O)n(-c2cncc(C#N)c2)c(=O)n1CC#N)C(F)F` (single isomer, unassigned) [Compound I-429] are below 100 nM and below 10 nM.
For the molecule `C[C@@](O)(CCc1c(-c2ccc(F)c(Cl)c2)c(=O)n(-c2cncc(C#N)c2)c(=O)n1CC#N)C(F)F` (single isomer, unassigned) [Compound I-430], the EC50 with SARS-CoV-2 (setting [3]) is below 100 nM. The half-inhibitory concentration (IC50) in test [1] is below 10 nM.
In the same order, the values of `C[C@@H](C#N)n1c(N2CC[C@](O)(C(F)F)C2)c(-c2ccc(F)c(Cl)c2)c(=O)n(-c2cncc(Cl)c2)c1=O` (single isomer, unassigned) [Compound I-431] are below 100 nM and below 10 nM.
In the same order, the values of `C[C@@H](C#N)n1c(N2CC[C@@](O)(C(F)F)C2)c(-c2ccc(F)c(C(F)F)c2)c(=O)n(-c2cncc(C#N)c2)c1=O` (single isomer, unassigned) [Compound I-432] are below 100 nM and below 10 nM.
In the same order, the values of `C[C@@H](C#N)n1c(N2CC[C@@](O)(C(F)F)C2)c(-c2ccc(F)c(Cl)c2)c(=O)n(-c2cncc(C#N)c2)c1=O` (single isomer, unassigned) [Compound I-433] are below 100 nM and below 10 nM.
With `C[C@@H](C#N)n1c(N2CC[C@](O)(C(F)F)C2)c(-c2ccc(F)c(F)c2)c(=O)n(-c2cncc(Cl)c2)c1=O` (single isomer, unassigned) [Compound I-434], the EC50 in the test with SARS-CoV-2 (setting [3]) is below 100 nM. Besides, the IC50 in test [1] is below 10 nM.
Take `CN1C[C@@H]2CN(c3c(Cc4cc(F)c(F)c(F)c4)c(=O)n(Cc4ncn(C)n4)c(=O)n3CC#N)C[C@@H]2C1` [Compound I-003]: the EC50 in the test on SARS-CoV-2 (setting [2]) fell in the range of 1000 to 5000 nM. Moreover, the concentration for half-maximal inhibition (IC50) in test [1] was above 100 nM.
In the same order, the values of `Cn1cnc(Cn2c(=O)c(Cc3cc(F)c(F)c(F)c3)c(-c3cc4ccccc4s3)n(CC#N)c2=O)n1` [Compound I-005] are 100 to 1000 nM and above 100 nM.
On to `Cn1cnc(Cn2c(=O)c(Cc3cc(F)c(F)c(F)c3)c(N3CCc4ccccc4C3)n(CC#N)c2=O)n1` [Compound I-006], for which, in the test with SARS-CoV-2 (setting [2]), the EC50 lay within 100 to 1000 nM. Further, in test [1], the IC50 was above 100 nM.
In the same order, the values of `N#CCn1c(N2CC3(CCOC3)C2)c(Cc2cc(F)c(F)c(F)c2)c(=O)n(-c2cncnc2)c1=O` [Compound I-007] are 100 to 1000 nM and above 100 nM.
In the same order, the values of `Cn1cnc(Cn2c(=O)c(Cc3cc(F)c(F)c(F)c3)c(N3Cc4ccccc4C3)n(CC#N)c2=O)n1` [Compound I-008] are 100 to 1000 nM and above 100 nM.
In the same order, the values of `COc1ccc(Oc2c(-c3cccc4ccccc34)c(=O)n(-c3cncc(C)c3)c(=O)n2CC#N)cc1` [Compound I-009] are 100 to 1000 nM and above 100 nM.
`Cc1cncc(-n2c(=O)c(Oc3cc(F)c(F)c(F)c3)c(Oc3cc(F)c(F)c(F)c3)n(CC#N)c2=O)c1` [Compound I-010]: in the test on SARS-CoV-2 (setting [2]), the EC50 was 1000 to 5000 nM. Besides, in test [1], the IC50 was above 100 nM.
Take `Cc1cncc(-n2c(=O)c(C(=O)c3cc(F)c(F)c(F)c3)c(-c3cc4ccccc4s3)n(CC#N)c2=O)c1` [Compound I-011]: in the test on SARS-CoV-2 (setting [5]), the EC50 was below 100 nM. In addition, the IC50 in test [1] fell in the range of 10 to 100 nM.
In the same order, the values of `Cc1cncc(-n2c(=O)c(Cc3cc(F)c(F)c(F)c3)c(-c3cccc(C#N)c3)n(CC#N)c2=O)c1` [Compound I-012] are below 100 nM and 10 to 100 nM.
Regarding `Cc1cncc(-n2c(=O)c(Oc3ccccc3)c(N3Cc4ccccc4C3)n(CC#N)c2=O)c1` [Compound I-014], the EC50 with SARS-CoV-2 (setting [4]) worked out at 17 nM. For the same molecule, the IC50 in test [1] is 5.1 nM.
Regarding `Cc1cncc(-n2c(=O)c(-c3ccc(F)c(Cl)c3)c(Cl)n(CC#N)c2=O)c1` [Compound I-015], the EC50 in the test on SARS-CoV-2 (setting [2]) was in the range of 100 to 1000 nM. For the same molecule, the IC50 in test [1] was below 10 nM.
In the same order, the values of `Cc1cncc(-n2c(=O)c(-c3cccc4ccccc34)c(N3Cc4cn[nH]c4C3)n(CC#N)c2=O)c1` [Compound I-016] are below 100 nM and below 10 nM.
In the same order, the values of `Cc1cncc(-n2c(=O)c(-c3ccc(F)c(Cl)c3)c(-c3cnc4ccccc4c3)n(CC#N)c2=O)c1` [Compound I-017] are below 100 nM and below 10 nM.
